pIC50: −log10 of the molar value. Where a SMILES comes first, the peptide text is derived from it. Bridges are numbered along the chain shown (N, C = ends). [ ]: non-standard residue; d: D form. The star is where a group is joined. DOTA = O=C(O)CN1CCN(CC(=O)O)CCN(CC(=O)*)CCN(CC(=O)O)CC1; Pro(cis-4-F) = O=C(O)[C@@H]1C[C@H](F)CN1; Dopa = N[C@@H](Cc1ccc(O)c(O)c1)C(=O)O; Hyp = O=C(O)[C@@H]1C[C@@H](O)CN1; Pentanoyl(4-Me) = CC(C)CCC(=O)*; 2Thi = N[C@@H](Cc1cccs1)C(=O)O; Cit = NC(=O)NCCC[C@H](N)C(=O)O; Butoxycarbonyl = CCCCOC(=O)*; NMeC = CN[C@@H](CS)C(=O)O; Nle = CCCC[C@H](N)C(=O)O; Nva = CCC[C@H](N)C(=O)O; Hexanoyl = CCCCCC(=O)*; Pentanoyl = CCCCC(=O)*; Butyryl = CCCC(=O)*
Tests used:
[1] = biological target: T1, uPAR-expressing HEC-265 human endometrial adenocarcinoma cells (Homo sapiens, UniProt Q03405); experiment: Competitive FACS binding assay; details: pIC50 category of FACS binding
T1 construct: Cell surface uPAR-expressing HEC-265 human endometrial adenocarcinoma cells; host or cells: HEC-265
Procedure: In order to determine binding of compounds according to the present invention to uPAR-expressing cells, a competitive FACS binding assay was established.
Cell surface uPAR-expressing HEC-265 human endometrial adenocarcinoma cells (Japanese Collection of Research Bioresources, #JCRB1142) were cultured in MEM Eagle with stable glutamine (Pan Biotech, #P04-09500) including 15% fetal bovine serum (Pan Biotech, #P30-3306) and 100 U/ml penicillin and 100 µg/mL streptomycin (Pan Biotech, #P06-07100). Cells were detached with Cell Dissociation Buffer (Thermo Scientific, #13151014) and washed in FACS buffer (PBS (Pan Biotech, #P04-36500) including 1% BSA (SeraCare, #AP-4510-80). Cells were diluted in FACS buffer to a final concentration of 500.000 cells per ml and 200 µl of the cell suspension are transferred to a u-shaped non-binding 96-well plate (Greiner Bio-One, #650901).
For IC50 determination, cells were incubated with 10 nM Bio--Ttds--Ttds--Ttds--Ttds-D-Cha-FsrYLWS-NH2) in the presence of increasing concentrations of non-labeled test compounds at 4°C for 1 hour. Cells were washed twice in FACS buffer. An additional incubation step with 1 µg/mL APC-Streptavidin (Miltenyi; #130-106-791) in 50 µL FACS buffer for 30 minutes on ice was performed followed by two washes with FACS buffer. Cells were resuspended in 200 µl FACS buffer and analyzed in an Attune NxT flow cytometer. Median fluorescence intensities (APC channel) were calculated by Attune NxT software and plotted against peptide concentrations. Four parameter logistic (4PL) curve fitting and pIC50 calculations were performed using ActivityBase software.

human uPAR (uPAR-Fc) = biological target: T2, human uPAR (uPAR-Fc) (Homo sapiens, UniProt Q03405); experiment: Surface plasmon resonance (SPR) assay, single cycle kinetics; type: binding; details: pKD category for uPAR SPR activity assay; uPAR-Fc on Protein A-Chip, 25°C; read-out: pKD CAT (converted)
T2 construct: comprising amino acids Leu23-Arg303 according to UniProt entry Q03405.1; purchased R&D Systems 10378-UK-100
Procedure: Surface plasmon resonance (SPR) is an optical technique used to measure molecular interactions in real time. SPR occur when plane-polarized light hits a metal film under total internal reflection conditions. SPR signal is directly dependent on the refractive index of the medium on the sensor chip. In an SPR experiment, one molecule (i.e. uPAR) is immobilized on a sensor chip and binding to a second molecule (i.e. test compounds) is measured under flow. The binding of the compound on the surface changes the refractive index. In responses the reflection angle changes as compounds bind and dissociate on the immobilized protein on the surface. This response is measured in resonance units (RU). The RUs are proportional to the number of molecules bound to the surface. […] Kinetic binding constants and equilibrium binding constants can be derived from the sensorgrams.
Surface plasmon resonance (SPR) studies were performed using a Biacore™ T200 or S200 SPR system (Cytiva, formerly GE Life Sciences) to assess binding of compounds to recombinant uPAR protein.
In this example recombinant protein comprising the extracellular domains of human uPAR (uPAR-Fc, R&D Systems, CAT 10378-UK-100, comprising amino acids Leu23-Arg303 according to UniProt entry Q03405.1 and Fc region of human IgG1 at the C-terminus) was immobilized on a Protein A-Chip (Cytiva, CAT 29127555) according to the supplier's instructions. uPAR-Fc was diluted in Running Buffer (10 mM HEPES, 150 mM NaCl, 50 µM EDTA, 0.1% DMSO, 0.05% Tween-20, pH 7.4) to a final concentration of 100 nM and then flushed over the Protein A-Chip to immobilized ~2000 RUs.
Stock solutions of test compounds were prepared by dissolving each compound in DMSO. DMSO stock solution were diluted 1: 1000 in Running Buffer without DMSO. Further sequential dilutions were made with Running Buffer containing 0.1% DMSO. SPR binding analyses were performed in Single Cycle Kinetic (SCK) mode at 25°C. Flow cell without immobilized uPAR-Fc served as reference flow cell. The chip was regenerated with 10 mM Glycine, pH 1,5 to remove the uPAR-Fc from the chip surface after each SCK run. After every three SCK measurements, a blank run with Running Buffer instead of test compound was included to correct for baseline drifts (double reference substraction method). Table 11: SPR protocol steps for SCK with uPAR-Fc immobilized on a Protein A-Chip.
For each test compound, SPR raw data sensorgrams were recorded using the Biacore™ T200 or S200 control software. Sensorgrams were processed and analyzed with the Biacore™ Insight Evaluation software. […] The reference subtracted sensorgram for each test compound was further corrected for baseline drift by subtracting the sensorgram of a reference subtracted blank run (Running Buffer only). The dissociation constant (KD) was calculated from the double reference subtracted sensorgrams using the 1:1 Langmuir binding model. The pKD value (negative decadic logarithm of dissociation constant) was calculated using Microsoft Excel.

T1 sequence (Q03405 23-335): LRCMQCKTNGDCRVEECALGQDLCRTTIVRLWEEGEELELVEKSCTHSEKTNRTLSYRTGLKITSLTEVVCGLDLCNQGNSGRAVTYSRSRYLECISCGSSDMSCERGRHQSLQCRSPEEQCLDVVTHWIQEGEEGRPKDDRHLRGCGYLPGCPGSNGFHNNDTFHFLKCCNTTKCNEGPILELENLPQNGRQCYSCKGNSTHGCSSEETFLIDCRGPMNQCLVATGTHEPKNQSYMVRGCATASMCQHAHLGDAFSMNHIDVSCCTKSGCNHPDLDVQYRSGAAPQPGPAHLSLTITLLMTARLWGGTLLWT
T2 sequence (Q03405 23-303): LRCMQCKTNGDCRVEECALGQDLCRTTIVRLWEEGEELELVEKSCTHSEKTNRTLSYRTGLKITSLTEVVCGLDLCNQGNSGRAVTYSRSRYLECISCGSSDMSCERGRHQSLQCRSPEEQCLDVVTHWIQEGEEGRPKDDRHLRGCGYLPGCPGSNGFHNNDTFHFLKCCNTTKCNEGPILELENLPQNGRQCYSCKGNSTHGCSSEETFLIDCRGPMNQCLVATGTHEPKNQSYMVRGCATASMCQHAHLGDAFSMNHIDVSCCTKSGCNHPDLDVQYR

Structure (SMILES) | pIC50 [1] | Kd (human uPAR (uPAR-Fc))
CCCCOC(=O)N[C@H]1CSSC[C@@H](C(N)=O)NC(=O)[C@H](CCC)NC(=O)[C@H]([C@@H](C)CC)NC(=O)[C@@H]2C[C@@H](O)CN2C(=O)[C@@H]2CCCN2C(=O)[C@H](Cc2cccs2)NC(=O)[C@H](Cc2ccc(O)cc2)NC(=O)[C@H](CCCCNC(=O)CN2CCN(CC(=O)O)CCN(CC(=O)O)CCN(CC(=O)O)CC2)NC(=O)[C@H]([C@@H](C)O)NC1=O [UPAR-134, Butoc-[Cys-Thr-Lys(DOTA)-Tyr-Thi-Pro-Hyp-Ile-Nva-Cys]-NH2] (Butoxycarbonyl-CTK(DOTA)Y[2Thi]P[Hyp]I[Nva]C-NH2; disulfide 1-10) | ≥ 8.00 | < 1.58 nM
CCCCC(=O)N[C@H]1CSSC[C@@H](C(N)=O)NC(=O)[C@H](CCC)NC(=O)[C@H]([C@@H](C)CC)NC(=O)[C@@H]2C[C@@H](O)CN2C(=O)[C@@H]2C[C@@H](O)CN2C(=O)[C@H](Cc2ccccc2)NC(=O)[C@H](Cc2ccc(O)cc2)NC(=O)[C@H](CCCCNC(=O)CN2CCN(CC(=O)O)CCN(CC(=O)O)CCN(CC(=O)O)CC2)NC(=O)[C@H]([C@@H](C)O)NC1=O [UPAR-135, Pent-[Cys-Thr-Lys(DOTA)-Tyr-Phe-Hyp-Hyp-Ile-Nva-Cys]-NH2] (Pentanoyl-CTK(DOTA)YF[Hyp][Hyp]I[Nva]C-NH2; disulfide 1-10) | ≥ 8.00 | < 1.58 nM
CCCCCC(=O)N[C@@H](CCCCNC(=O)CN1CCN(CC(=O)O)CCN(CC(=O)O)CCN(CC(=O)O)CC1)C(=O)N[C@@H](CC(C)C)C(=O)N[C@H]1CSSC[C@@H](C(N)=O)NC(=O)[C@H](CC(C)C)NC(=O)[C@H]([C@@H](C)CC)NC(=O)[C@H](C)NC(=O)[C@@H]2CCCN2C(=O)[C@H](Cc2ccccc2)NC(=O)[C@H](Cc2ccc(O)cc2)NC(=O)[C@H](CCSC)NC(=O)[C@H](CCCNC(=N)N)NC1=O [UPAR-140, Hex-Lys(DOTA)-Leu-[Cys-Arg-Met-Tyr-Phe-Pro-Ala-Ile-Leu-Cys]-NH2] (Hexanoyl-K(DOTA)LCRMYFPAILC-NH2; disulfide 3-12) | ≥ 8.00 | < 1.58 nM
CCCCOC(=O)N[C@H]1CSSC[C@@H](C(=O)N[C@@H](CC(=O)O)C(N)=O)NC(=O)[C@H](CCC)NC(=O)[C@H]([C@@H](C)CC)NC(=O)[C@@H]2C[C@@H](O)CN2C(=O)[C@@H]2C[C@H](F)CN2C(=O)[C@H](Cc2ccccc2)NC(=O)[C@H](Cc2ccc(O)cc2)NC(=O)[C@H](CCCCNC(=O)CN2CCN(CC(=O)O)CCN(CC(=O)O)CCN(CC(=O)O)CC2)NC(=O)[C@H]([C@@H](C)O)NC1=O [UPAR-141, Butoc-[Cys-Thr-Lys(DOTA)-Tyr-Phe-4Cfp-Hyp-Ile-Nva-Cys]-Asp-NH2] (Butoxycarbonyl-CTK(DOTA)YF[Pro(cis-4-F)][Hyp]I[Nva]CD-NH2; disulfide 1-10) | 7.00 to 7.40 | 10 to 100 nM
CCC[C@@H]1NC(=O)[C@H]([C@@H](C)CC)NC(=O)[C@@H]2C[C@@H](O)CN2C(=O)[C@@H]2CCCN2C(=O)[C@H](Cc2ccccc2)NC(=O)[C@H](Cc2ccc(O)cc2)NC(=O)[C@H](CCC(N)=O)NC(=O)[C@H](CCCNC(N)=O)NC(=O)[C@@H](N(C)C(=O)[C@H](CC(C)C)NC(=O)CN2CCN(CC(=O)O)CCN(CC(=O)O)CCN(CC(=O)O)CC2)CSSC[C@@H](C(N)=O)NC1=O [UPAR-142, DOTA-Leu-[Nmc-Cit-Gln-Tyr-Phe-Pro-Hyp-Ile-Nva-Cys]-NH2] ({DOTA}-L[NMeC][Cit]QYFP[Hyp]I[Nva]C-NH2; disulfide 2-11) | ≤ 6.90 | 10 to 100 nM

The next lines start with the values.

pIC50 [1] | Kd (human uPAR (uPAR-Fc)) | Structure (SMILES)
≥ 8.00 | < 1.58 nM | CCCC[C@@H]1NC(=O)[C@H](CCCNC(=N)N)NC(=O)[C@@H](NC(=O)[C@H](CC(C)C)NC(=O)[C@@H](CC(=O)O)NC(C)=O)CSSC[C@@H](C(N)=O)NC(=O)[C@H](CC(C)C)NC(=O)[C@H]([C@@H](C)CC)NC(=O)[C@H](C)NC(=O)[C@@H]2CCCN2C(=O)[C@H](Cc2ccccc2)NC(=O)[C@H](Cc2ccc(O)cc2)NC1=O [UPAR-133, Ac-asp-Leu-[Cys-Arg-Nle-Tyr-Phe-Pro-Ala-Ile-Leu-Cys]-NH2] (Ac-[dD]LCR[Nle]YFPAILC-NH2; disulfide 3-12)
≥ 8.00 | 1.58 to 10 nM | CCC[C@@H]1NC(=O)[C@@H](C)NC(=O)[C@@H]2CCCN2C(=O)[C@H](Cc2ccccc2)NC(=O)[C@H](Cc2ccc(O)cc2)NC(=O)[C@H](CCC(N)=O)NC(=O)[C@H](CCCNC(N)=O)NC(=O)[C@@H](NC(=O)CCC(C)C)CSSC[C@@H](C(N)=O)NC(=O)[C@H](CC(C)C)NC1=O [UPAR-136, iHex-[Cys-Cit-Gln-Tyr-Phe-Pro-ala-Nva-Leu-Cys]-NH2] ({Pentanoyl(4-Me)}-C[Cit]QYFP[dA][Nva]LC-NH2; disulfide 1-10)
7.50 to 7.90 | 1.58 to 10 nM | CCCC[C@@H]1NC(=O)[C@H](CCCNC(=N)N)NC(=O)[C@@H](NC(=O)[C@H](CC(C)C)NC(=O)[C@H](CC(=O)O)NC(C)=O)CSSC[C@@H](C(N)=O)NC(=O)[C@@H](CC(C)C)NC(=O)[C@H]([C@@H](C)CC)NC(=O)[C@H](C)NC(=O)[C@@H]2CCCN2C(=O)[C@H](Cc2ccccc2)NC(=O)[C@H](Cc2ccc(O)cc2)NC1=O [UPAR-137, Ac-Asp-Leu-[Cys-Arg-Nle-Tyr-Phe-Pro-Ala-Ile-leu-Cys]-NH2] (Ac-DLCR[Nle]YFPAI[dL]C-NH2; disulfide 3-12)
7.50 to 7.90 | 1.58 to 10 nM | CCCC(=O)N[C@H]1CSSC[C@@H](C(N)=O)NC(=O)[C@H](CC(C)C)NC(=O)[C@H]([C@@H](C)CC)NC(=O)[C@@H](C)NC(=O)[C@@H]2CCCN2C(=O)[C@H](Cc2ccccc2)NC(=O)[C@H](Cc2ccc(O)cc2)NC(=O)[C@H](CCC(N)=O)NC(=O)[C@H](CCCNC(N)=O)NC1=O [UPAR-139, But-[Cys-Cit-Gln-Tyr-Phe-Pro-ala-Ile-Leu-Cys]-NH2] (Butyryl-C[Cit]QYFP[dA]ILC-NH2; disulfide 1-10)
≥ 8.00 | < 1.58 nM | CCCCCC(=O)N[C@H](C(=O)N[C@@H](CC(C)C)C(=O)N[C@H]1CSSC[C@@H](C(N)=O)NC(=O)[C@H](CC(C)C)NC(=O)[C@H]([C@@H](C)CC)NC(=O)[C@H](C)NC(=O)[C@@H]2CCCN2C(=O)[C@H](Cc2ccccc2)NC(=O)[C@H](Cc2ccc(O)cc2)NC(=O)[C@H](Cc2ccc(O)cc2)NC(=O)[C@H](CCC(=O)O)NC1=O)[C@@H](C)O [UPAR-143, Hex-Thr-Leu-[Cys-Glu-Tyr-Tyr-Phe-Pro-Ala-Ile-Leu-Cys]-NH2] (Hexanoyl-TLCEYYFPAILC-NH2; disulfide 3-12)
≥ 8.00 | < 1.58 nM | CC[C@H](C)[C@@H]1NC(=O)[C@@H](C)NC(=O)[C@@H]2CCCN2C(=O)[C@H](Cc2ccccc2)NC(=O)[C@H](Cc2ccc(O)c(O)c2)NC(=O)[C@H](CCC(N)=O)NC(=O)[C@H](CCCNC(N)=O)NC(=O)[C@@H](NC(=O)CCC(C)C)CSSC[C@@H](C(N)=O)NC(=O)[C@H](CC(C)C)NC1=O [UPAR-144, iHex-[Cys-Cit-Gln-Dopa-Phe-Pro-ala-Ile-Leu-Cys]-NH2] ({Pentanoyl(4-Me)}-C[Cit]Q[Dopa]FP[dA]ILC-NH2; disulfide 1-10)

From patent publication EP4610269A1, “UROKINASE PLASMINOGEN ACTIVATOR SURFACE RECEPTOR (UPAR) LIGANDS FOR DIAGNOSTIC OR THERAPEUTIC USE” (3B Pharmaceuticals GmbH, priority 2024, dated 2025)
